Where “and” joins values, the source holds several entries; their conditions need not be identical. Identical values can stand only once.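 Assay format: 96-well plates, 48-hour exposure. GI50 is the concentration that inhibits growth by half. TGI denotes the concentration required for complete inhibition of growth.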 Where a SMILES comes first, the peptide text is derived from it. Square brackets hold non-standard residues; d marks the D form. Peptide text beside a SMILES is read from it. [ ]: non-standard residue; d: D form. The star is where a group is joined. ξ: configuration not given here. Phe(4-NO2) = N[CH](Cc1ccc([N+](=O)[O-])cc1)C(=O)O; ξPhe(4-NO2) = NC(Cc1ccc([N+](=O)[O-])cc1)C(=O)O; Boc = CC(C)(C)OC(=O)*
Key:
Test in all cases: NCI anticancer screen, dose series, 48 h
SF-295 CNS = test system: SF-295 CNS
SF-268 CNS = test system: SF-268 CNS
A549 NSCLC = test system: A549 NSCLC
M14 melanoma = test system: M14 melanoma
OVCAR-5 ovarian = test system: OVCAR-5 ovarian
MDA-N = test system: MDA-N
PC-3 prostate = test system: PC-3 prostate
COLO 205 colon = test system: COLO 205 colon
MALME-3M melanoma = test system: MALME-3M melanoma
U251 CNS = test system: U251 CNS
SR leukemia = test system: SR leukemia
HCC-2998 colon = test system: HCC-2998 colon
T-47D breast = test system: T-47D breast

| SMILES | TGI (SF-295 CNS) | TGI (SF-268 CNS) | TGI (A549 NSCLC) | TGI (M14 melanoma) | TGI (OVCAR-5 ovarian) | TGI (MDA-N) | TGI (PC-3 prostate) | TGI (COLO 205 colon) | TGI (MALME-3M melanoma) | TGI (U251 CNS) | TGI (SR leukemia) | TGI (HCC-2998 colon) | GI50 (A549 NSCLC) | TGI (T-47D breast) |
| --- | --- | --- | --- | --- | --- | --- | --- | --- | --- | --- | --- | --- | --- | --- |
| CCNC(=O)CNC(=O)C(Cc1ccc([N+](=O)[O-])cc1)NC(=O)OC(C)(C)C (configuration not stated) (Boc-[ξPhe(4-NO2)]-Gly-NHEt) | > 100 µM | > 100 µM | > 100 µM | > 100 µM | > 100 µM | > 100 µM | > 100 µM | > 100 µM | > 100 µM | > 100 µM | > 100 µM | > 100 µM |  |  |
| COc1ccc2c(c1)C=C(C(C)(C)C)NS2(=O)=O | > 100 µM | > 100 µM | > 100 µM | > 100 µM | > 100 µM |  |  | > 100 µM | > 100 µM | > 100 µM | > 100 µM | > 100 µM |  |  |
| O=c1oc2ccccc2n1CCCn1c(=O)oc2ccccc21 | > 100 µM | > 100 µM |  | > 100 µM | > 100 µM |  | > 100 µM | > 100 µM | > 100 µM | > 100 µM | > 100 µM |  |  |  |
| O=C(N[C@@H](Cc1ccccc1)B(O)O)[C@H](Cc1cccc2ccccc12)NC(=O)N1CCOCC1 | 0.0304 µM and 0.0239 µM | 0.00654 µM and 0.058 µM | 0.47 µM | 0.00405 µM | 0.0155 µM |  | 0.106 µM and 0.134 µM | 0.197 µM and 0.233 µM | 0.0103 µM and 0.0226 µM | 0.132 µM and 0.174 µM | 0.0126 µM | 0.00339 µM | 0.0123 µM | 0.00368 µM |
| COC(=O)CCC(NC(=O)C(CCC(=O)OC)NC(=O)C(CCC(=O)OC)NC(=O)C(CCC(=O)OC)NC(=O)C(CCC(=O)OC)NC(=O)C(Cc1ccc([N+](=O)[O-])cc1)NC(=O)C(CCC(=O)OC)NC(=O)C(CCC(=O)OC)NC(=O)C(CCC(=O)OC)NC(=O)C(CCC(=O)OC)NC(=O)C(CCC(=O)OC)NC(C)=O)C(N)=O (configuration not stated) (Ac-E(OMe)E(OMe)E(OMe)E(OMe)E(OMe)[Phe(4-NO2)]E(OMe)E(OMe)E(OMe)E(OMe)E(OMe)-NH2; configuration not given here) | > 100 µM | > 100 µM | > 100 µM | > 100 µM | > 100 µM | > 100 µM |  | > 100 µM | > 100 µM | > 100 µM | > 100 µM |  |  |  |
| CCOc1ncnc2ccc(Cl)c(I)c12 | > 100 µM | > 100 µM | > 100 µM | > 100 µM | > 100 µM |  |  | > 100 µM | > 100 µM | > 100 µM | > 100 µM | > 100 µM |  |  |
| ClCCc1ccccc1CC1=NCCc2ccccc21 | > 100 µM | > 100 µM | > 100 µM | 71.5 µM | > 100 µM |  | > 100 µM | 63.5 µM |  | > 100 µM | > 100 µM | 62.5 µM |  | > 100 µM |
| CC(C)C[C@H](NC(=O)CCc1cccc2ccccc12)B(O)O | 20.2 µM | 10.1 µM | 49.7 µM | 3.72 µM | 6.72 µM |  | 29.3 µM | 36.3 µM | 5.23 µM | 19.6 µM | 2.2 µM | 2.62 µM |  | 4.23 µM |
| CC(C)(C)OC(=O)N1CCC(NC(=O)NC2CCN(C(=O)OC(C)(C)C)CC2)CC1 | > 100 µM | > 100 µM | > 100 µM | > 100 µM | > 100 µM | > 100 µM | > 100 µM |  | > 100 µM | > 100 µM | > 100 µM | > 100 µM |  |  |
| C=C(C1=CC(=O)C(C)(C)O1)[C@@H]1CC=C([C@@H]2CC[C@H]3[C@@]2(C)CC[C@H]2C(C)(C)C(=O)[C@H](OC(=O)CC(C)(O)CC(=O)O)C[C@]32C)[C@H](O)O1 (some centres not stated) | > 75 µM | 24.4 µM | 40.3 µM | 27 µM | 26.5 µM | 30.5 µM | 30.2 µM | 24.5 µM | 28 µM | 25.2 µM | 49.2 µM |  |  |  |
| CCOC(OCC)[C@H](N)[C@@H](O)[C@@H](O)[C@H]1COC(C)(C)O1 | > 100 µM | > 100 µM | > 100 µM | > 100 µM | > 100 µM | > 100 µM | > 100 µM | > 100 µM | > 100 µM | > 100 µM | > 100 µM |  |  |  |
| Cn1c(O)c(C=Nc2ccc(Cl)cc2Cl)c(=O)n(C)c1=O | > 100 µM | > 100 µM | > 100 µM | > 100 µM | > 100 µM |  | > 100 µM | > 100 µM | > 100 µM | > 100 µM | > 100 µM | > 100 µM |  | > 100 µM |
| CC(C)C1=CC23CCC4C(C)(C(=O)O)CCCC4(C)C2CC1C1C(=O)N(c2cccc(N4C(=O)C5C6CC7C8(C)CCCC(C)(C(=O)O)C8CCC7(C=C6C(C)C)C5C4=O)c2)C(=O)C13 (configuration not stated) |  | 27.8 µM | > 100 µM | 25.5 µM | 20 µM |  | 17.9 µM | 23.8 µM | 32.9 µM | 11 µM | 45 µM | 20.3 µM |  | 33.7 µM |
| NS(=O)(=O)c1nnc(NC(=O)/C=C/C(=O)O)s1 | > 100 µM | > 100 µM | > 100 µM | > 100 µM | > 100 µM | > 100 µM |  | > 100 µM | > 100 µM | > 100 µM | > 100 µM | > 100 µM |  | > 100 µM |
| CCOC1=NC(C(F)(F)F)(C(F)(F)F)N=C(N2CCCCC2)O1 | > 100 µM | > 100 µM | > 100 µM | > 100 µM | > 100 µM |  | > 100 µM | > 100 µM | > 100 µM | > 100 µM | > 100 µM |  |  | > 100 µM |
| CC(c1ccccc1)C(O)S(=O)(=O)O (configuration not stated) | > 100 µM | > 100 µM | > 100 µM | > 100 µM | > 100 µM |  |  | > 100 µM | > 100 µM | > 100 µM |  |  |  |  |
| Cc1ccc2c(=O)c(C(=O)NNC(=S)NC3CCCCC3)c[nH]c2n1 | > 100 µM | > 100 µM | > 100 µM | > 100 µM | > 100 µM | > 100 µM | > 100 µM | > 100 µM | > 100 µM | > 100 µM |  |  |  | > 100 µM |
| CCCCN1CCC(O)(c2cc(C(=O)O)[nH]c2-c2cc(C)no2)C1=O (configuration not stated) | > 100 µM | > 100 µM | > 100 µM | > 100 µM | > 100 µM | > 100 µM | > 100 µM | > 100 µM | > 100 µM | > 100 µM |  | > 100 µM |  |  |
| COc1cc(OC)cc(C(=O)Cc2c(C(=O)c3ccccc3)c3ccccc3n2C(=O)c2ccccc2)c1 | 94.9 µM | > 100 µM | > 100 µM | > 100 µM | > 100 µM |  |  | 93.4 µM | > 100 µM | > 100 µM | > 100 µM | > 100 µM |  |  |
| CO/N=C(\C(=O)[N-][n+]1cnn(CC(=O)O)c1)c1csc(N)n1 |  | > 10 µM | > 10 µM | > 10 µM |  | > 10 µM |  | > 10 µM |  |  | > 10 µM | > 10 µM |  | > 10 µM |
| C/C(=N\Nc1nc2ccccc2o1)c1cc2ccccc2cn1 | 4.56 µM | 2.82 µM | 9.46 µM |  | 16.4 µM | 35.3 µM | 12 µM | > 32.7 µM | 5.51 µM | > 100 µM |  |  |  | > 100 µM |
| CCOC(=O)c1csc(-c2nc(CCNC(=O)c3ccccc3)sc2Cl)n1 | > 100 µM | > 100 µM | > 100 µM | > 100 µM | > 100 µM | > 100 µM | > 100 µM | > 100 µM | > 100 µM | > 100 µM | > 100 µM | > 100 µM |  |  |
| O=C1CN(c2ccccc2)C(=O)CN1CCN1CC(=O)N(c2ccccc2)CC1=O | > 100 µM | > 100 µM | > 100 µM | > 100 µM | > 100 µM | > 100 µM | > 100 µM | > 100 µM | > 100 µM | > 100 µM | > 100 µM | > 100 µM |  |  |
| O=C1/C(=C\c2cccc(Oc3ccccc3)c2)SC(c2ccccc2)N1c1cccc(Cl)c1 (configuration not stated) | > 100 µM | > 100 µM | > 100 µM | > 100 µM | > 100 µM | > 100 µM |  | > 100 µM | > 100 µM | > 100 µM |  | > 100 µM |  | > 100 µM |
| COc1ccc(NS(=O)(=O)c2ccc(N=C3C=C(Nc4ccc(S(=O)(=O)Nc5ccc(OC)nn5)cc4)C(=O)c4ccccc43)cc2)nn1 | 32.1 µM | 52.9 µM | 32.2 µM | 31.3 µM | 34.1 µM |  |  | 32.5 µM | 33.1 µM | 33.2 µM | > 100 µM | 34.1 µM |  |  |
| Cc1ccc(N2C3=C(CC4=C2CC(C)(C)CC4=O)C(=O)CC(C)(C)C3)cc1 | > 100 µM | > 100 µM | > 100 µM | > 100 µM | > 100 µM | > 100 µM | > 100 µM | > 100 µM | > 100 µM | > 100 µM | > 100 µM | > 100 µM |  |  |
| COc1ccc(NC(=S)Nc2c(C)n(C)n(-c3ccccc3)c2=O)cc1 | > 100 µM | > 100 µM | > 100 µM | > 100 µM | > 100 µM | > 100 µM | > 100 µM | > 100 µM | > 100 µM | > 100 µM |  | > 100 µM |  |  |
